Source: US6358883B1, “Pesticidal and parasiticidal use of 1-aryl-1-(substituted thio, sulfinyl and sulfonyl)-2-nitroethane compounds” (American Cyanamid Company, priority 1998, dated 2002)

Legend:
Assay type in all cases: in vivo
[1] = system: Diabrotica undecimpunctata howardi, eggs-southern corn rootworm (SCR-Eggs); assay: Southern corn rootworm eggs (SCR-Eggs) treated diet test; design: key: 0 = no effect; 1 = 10-25% kill; 2 = 26-35% kill; 3 = 36-45% kill; 4 = 46-55% kill; 5 = 56-65% kill; 6 = 66-75% kill; 7 = 76-85% kill; 8 = 86-99% kill; 9 = 100% kill; settings: mortality after 7 days
Method: Test solutions are prepared by dissolving the test compound in a 35% acetone in water mixture to give a concentration of 10,000 ppm. Subsequent dilutions are made with water as needed. Spodoptera eridania, Eggs-southern Armyworm and Diabrotica undecimpunctata howardi, Eggs-southern Corn Rootworm (SAW-Eggs) and (SCR-Eggs) Wells containing artificial diet are treated with the test solutions and dried. The appropriate insect eggs are then placed in the wells. The wells are covered with vented, adhesive, clear plastic covers. After 7 days, mortality counts are made. [table]

[2] = system: Diabrotica virgifera virgifera Leconte, 2nd instar western corn rootworm (WCR); assay: Western corn rootworm (WCR) soil test; design: key: 0 = no effect; 1 = 10-25% kill; 2 = 26-35% kill; 3 = 36-45% kill; 4 = 46-55% kill; 5 = 56-65% kill; 6 = 66-75% kill; 7 = 76-85% kill; 8 = 86-99% kill; 9 = 100% kill
Method: Test solutions are prepared by dissolving the test compound in a 35% acetone in water mixture to give a concentration of 10,000 ppm. Subsequent dilutions are made with water as needed. Diabrotica virgifera virgifera Leconte, 2nd Instar Western Corn Rootworm (WCR) One cc of fine talc is placed in a 30 mL wide-mouth screw-top glass jar. One mL of the appropriate acetone test solution is pipetted onto the talc so as to provide 1.25 mg of active ingredient per jar. The jars are set under a gentle air flow until the acetone is evaporated. The dried talc is loosened, 1 cc of millet seed is added to serve as food for the insects and 25 mL of moist soil is added to each jar. The jar is capped and the contents thoroughly mixed mechanically. Following this, ten 2nd instar rootworms are added to each jar and the jars are loosely capped to allow air exchange for the larvae. The treatments are held for 5 days when mortality counts are made. Missing larvae are presumed dead, since they decompose rapidly and cannot be found. The concentrations of active ingredient used in this test correspond approximately to 50 kg/ha. [table]

[3] = system: Tetranychus urticae (OP-resistant strain), 2-spotted spider mite (TSM); assay: 2-spotted spider mite (TSM) plant dip test; design: key: 0 = no effect; 1 = 10-25% kill; 2 = 26-35% kill; 3 = 36-45% kill; 4 = 46-55% kill; 5 = 56-65% kill; 6 = 66-75% kill; 7 = 76-85% kill; 8 = 86-99% kill; 9 = 100% kill; settings: mortality after 2 days
Method: (§1) Test solutions are prepared by dissolving the test compound in a 35% acetone in water mixture to give a concentration of 10,000 ppm. Subsequent dilutions are made with water as needed.
Tetranychus urticae (OP-resistant strain), 2-spotted Spider Mite (TSM)
Sieva lima bean plants with primary leaves expanded to 7-8 cm are selected and cut back to one plant per pot. A small piece is cut from an infested leaf taken from the main colony and placed on each leaf of the test plants. This is done about 2 hours before treatment to allow the mites to move over to the test plant to lay eggs. The size of the cut, infested leaf is varied to obtain about 100 mites per leaf. At the time of test treatment, the piece of leaf used to transfer the mites is removed and discarded. The newly-infested plants are dipped in the test solution for 3 seconds with agitation and set in the hood to dry. After 2 days, one leaf is removed and mortality counts are made.

[4] = system: M. incognita (Root Knot Nematode) larvae; assay: Evaluation of test compounds against M. incognita larvae in microtiter plate wells (movement score); settings: larvae scored for movement after 20-24 hours; note: key: A score of '9' indicates inactive worms with a straight, sticklike morphology; A score of '8' indicates inactive worms with a limp, curled or curved morphology; A score of '7' indicates dead/paralyzed worms after 72 hours
Method: Evaluation of Test Compounds Against M. incognita (Root Knot Nematode)
Newly emerged M. incognita larvae are suspended in S Medium (buffered salt solution) to a concentration of 50-65 worms per 50 μl. 50 μl of the worm suspension are pipetted into microtiter plate wells containing the test compounds. The plates are then covered with plactic plate sealers to reduce loss of volume by evaporation. After 20-24 hours of incubation, the larvae are scored for movement. Wells containing obviously dead/paralyzed larvae are scored as positive. […] A score of “7” indicates dead/paralyzed worms after […].

[5] = system: Spodoptera eridania, 2nd instar larvae, southern armyworm (SAW); assay: Southern armyworm (SAW) leaf dip test; design: key: 0 = no effect; 1 = 10-25% kill; 2 = 26-35% kill; 3 = 36-45% kill; 4 = 46-55% kill; 5 = 56-65% kill; 6 = 66-75% kill; 7 = 76-85% kill; 8 = 86-99% kill; 9 = 100% kill
Method: as §1
Spodoptera eridania, 2nd Instar Larvae, Southern Armyworm (SAW)
A Sieva lima bean leaf expanded to 7-8 cm in length is dipped in the test solution with agitation for 3 seconds and allowed to dry in a hood. The leaf is then placed in a 100×10 mm petri dish containing a damp filter paper on the bottom and ten 2nd instar caterpillars. At 5 days, observations are made of mortality, reduced feeding, or any interference with normal molting.

[6] = system: Aphis gossypii, cotton aphid (CA); assay: Cotton aphid (CA) cotyledon dip test; design: key: 0 = no effect; 1 = 10-25% kill; 2 = 26-35% kill; 3 = 36-45% kill; 4 = 46-55% kill; 5 = 56-65% kill; 6 = 66-75% kill; 7 = 76-85% kill; 8 = 86-99% kill; 9 = 100% kill; settings: mortality after 5 days
Method: Test solutions are prepared by dissolving the test compound in a 35% acetone in water mixture to give a concentration of 10,000 ppm. Subsequent dilutions are made with water as needed. Aphis gossypii, Cotton Aphid (CA) Cotton plants at the cotyledon stage are selected and cut back to one plant per pot. A heavily infested leaf is taken from the main colony and placed on top of each cotyledon. The aphids are allowed to transfer to the host plant overnight. At the time of test treatment, the leaf used to transfer the aphids is removed and discarded. The cotyledons are dipped in the test solution and allowed to dry. After 5 days, mortality counts are made. [table]

[7] = system: C. elegans (Bristol strain); assay: Evaluation of test compounds against C. elegans (motility, 96-well plate); design: key: 9=complete kill in 4 hours; 8=complete kill in 24 hours; 7=markedly reduced motility in approximately 95% of worms in 24 hours; 0=normal motility, same as controls; settings: motility at 4 and 24 hours
Method: Evaluation of Test Compounds Against C. elegans Cultures of C. elegans (Bristol strain from J. Lewis) are maintained on E. coli lawns on NG Agar Plates at 20° C. New cultures are established weekly. Nematodes for testing are washed from cultures using Na buffer. Compounds are dissolved in 80% acetone. The test material is micropipetted (25 μl) into a single well of a 96-well sterile tissue culture plate and the solvent allowed to evaporate. A freshly prepared volume (50 μl) of C. elegans in Na buffer is micropipetted into each treated well and several control wells per plate. Plates are incubated at 20° C. Observations for efficacy are made under a dissecting microscope at 4 and 24 hours post-immersion. Immediately prior to reading the plate, it is gently tapped to stimulate the movement of the worms. Activity is judged subjectively, but semi-quantitatively, based on the drug effects on motility of the adults and larvae.

SMILES | SCR Eggs (1000 ppm) rating [1] | WCR (50 ppm) rating [2] | TSM (300 ppm) rating [3] | M. incognita (150 ppm) score [4] | SAW (300 ppm) rating [5] | CA (300 ppm) rating [6] | Rating Against C. elegans (150 ppm) [7]
CC(C)CCCCCOC(=O)CSC(C[N+](=O)[O-])c1ccccc1F (centres unmarked) [Example 42] | 9 (9 = 100% kill) | 6 (6 = 66-75% kill) | 0 | 0 | 0 | 0 | 0
CC(C)c1ccc(C(C[N+](=O)[O-])SCc2ccccc2)cc1 (centres unmarked) [Example 36] | 7 (7 = 76-85% kill) | 0 | 0 | 0 | 1 (1 = 10-25% kill) | 0 | 0
O=[N+]([O-])CC(SCc1ccccc1)c1ccc(Cl)cc1 (centres unmarked) [Example 75] |  | 0 | 0 | 0 | 0 | 0 | 0
COC(=O)CSC(C[N+](=O)[O-])c1ccc(Cl)cc1 (centres unmarked) [Example 70] |  | 0 | 0 | 9 | 0 | 0 | 7
O=C(O)CSC(C[N+](=O)[O-])c1ccc(F)cc1 (centres unmarked) [Example 63] |  | 0 | 0 | 9 | 0 | 0 | 9
Cc1ccc(C(C[N+](=O)[O-])SCC(=O)O)cc1 (centres unmarked) [Example 65] |  | 9 (9 = 100% kill) | 0 | 9 | 0 | 0 | 9
CCCSC(C[N+](=O)[O-])c1ccc(Cl)cc1 (centres unmarked) [Example 76] |  | 0 | 0 | 0 | 0 | 0 | 7
CCCCC(CC)COC(=O)CSC(C[N+](=O)[O-])c1ccc(Cl)cc1 (centres unmarked) [Example 74] |  | 0 | 0 | 0 | 0 | 0 | 0
COC(=O)CSC(C[N+](=O)[O-])c1ccccc1Cl (centres unmarked) [Example 88] | 0 | 0 | 0 | 8 | 0 | 0 | 
